Assay results: patent US9907800B2, “Kinase inhibitors and method of treating cancer” (University Health Network, priority 2010, dated 2018)
Structures can show the parent of a compound that is named as a salt.

Target: human PLK4 (Homo sapiens (Human), UniProt O00444)
Test: PLK4 inhibition assay (indirect ELISA)
Type: biochemical
Details: read-out: PLK4 IC50 Ranges

human PLK4, sequence (O00444 1-391): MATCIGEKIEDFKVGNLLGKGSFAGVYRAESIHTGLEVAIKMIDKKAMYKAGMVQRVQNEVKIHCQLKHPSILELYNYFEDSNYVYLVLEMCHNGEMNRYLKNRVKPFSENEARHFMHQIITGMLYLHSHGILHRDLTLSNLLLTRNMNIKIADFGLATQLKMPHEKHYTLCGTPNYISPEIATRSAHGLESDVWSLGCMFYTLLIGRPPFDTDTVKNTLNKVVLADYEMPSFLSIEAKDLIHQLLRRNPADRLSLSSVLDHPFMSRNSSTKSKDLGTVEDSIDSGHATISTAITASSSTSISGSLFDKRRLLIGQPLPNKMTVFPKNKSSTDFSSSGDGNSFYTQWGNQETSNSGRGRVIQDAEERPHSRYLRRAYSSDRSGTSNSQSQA

| IC50 [µM] | SMILES |
| --- | --- |
| > 1 | O=C1Nc2ccccc2[C@]12C[C@H]2c1ccc2[nH]ncc2c1 (relative stereo) [Example A1, (1R*,2S*)-2-(1H-indazol-5-yl)spiro[cyclopropane-1,3′-indolin]-2′-one] |
| < 0.1 | COc1ccc2c(c1)[C@]1(C[C@H]1c1ccc3c(-c4cccc(CCO)c4)n[nH]c3c1)C(=O)N2 (relative stereo) [Example A46, (1R*,2S*)-2-(3-(3-(2-hydroxyethyl)phenyl)-1H-indazol-6-yl)-5′-methoxy spiro[cyclopropane-1,3′-indolin]-2′-one] |
| > 1 | COc1cc2c(cc1OC)[C@]1(C[C@H]1c1ccc3c(-c4cccc(CN5CCOCC5)c4)n[nH]c3c1)C(=O)N2 (relative stereo) [Example A143, (1R*,2S*)-5′,6′-dimethoxy-2-(3-(3-(morpholinomethyl)phenyl)-1H-indazol-6-yl)spiro[cyclopropane-1,3′-indolin]-2′-one 2,2,2-trifluoroacetate] |
| 0.1 to 1 | COc1cc2c(cc1OC)[C@]1(C[C@H]1c1ccc3c(-c4ccc(N5CCN(C)CC5)cc4)n[nH]c3c1)C(=O)N2 (relative stereo) [Example A144, (1R*,2S*)-5′,6′-dimethoxy-2-(3-(4-(4-methylpiperazin-1-yl)phenyl)-1H-indazol-6-yl)spiro[cyclopropane-1,3′-indolin]-2′-one 2,2,2-trifluoroacetate] |
| > 1 | COc1ccc2c(c1)[C@@]1(C[C@@H]1c1ccc3c(I)n[nH]c3c1)C(=O)N2 [Example A8, (1S,2R)-2-(3-iodo-1H-indazol-6-yl)-5′-methoxyspiro[cyclopropane-1,3′-indolin]-2′-one] |
| < 0.1 | O=C1Nc2ccccc2[C@]12C[C@H]2c1ccc2c(/C=C/c3ccc4c(c3)CNCCO4)n[nH]c2c1 [Example A113, (1R,2S)-2-(3-((E)-2-(2,3,4,5-tetrahydrobenzo[f][1,4]oxazepin-7-yl)vinyl)-1H-indazol-6-yl)spiro[cyclopropane-1,3′-indolin]-2′-one 2,2,2-trifluoroacetate] |

More lines, now with the values behind:

| SMILES | IC50 [µM] |
| --- | --- |
| CN1C(=O)[C@@]2(C[C@H]2c2ccc3c(-c4ccc(N5CCNCC5)cc4)n[nH]c3c2)c2ccccc21 (relative stereo) [Example A88, (1R*,2S*)-1′-methyl-2-(3-(4-(piperazin-1-yl)phenyl)-1H-indazol-6-yl)spiro[cyclopropane-1,3′-indolin]-2′-one 2,2,2-trifluoroacetate] | 0.1 to 1 |
| O=C1Nc2ccccc2[C@]12C[C@H]2c1ccc2c(/C=C/c3csc(CN4CCOCC4)n3)n[nH]c2c1 [Example A77, (1R,2S)-2-(3-((E)-2-(2-(morpholinomethyl)thiazol-4-yl)vinyl)-1H-indazol-6-yl)spiro[cyclopropane-1,3′-indolin]-2′-one 2,2,2-trifluoroacetate salt] | < 0.1 |
| C/C(=C\c1ccc(CN2CCOCC2)cc1)c1n[nH]c2cc([C@@H]3C[C@@]34C(=O)Nc3ccccc34)ccc12 [Example A114, (1R,2S)-2-(3-((E)-1-(4-(morpholinomethyl)phenyl)prop-1-en-2-yl)-1H-indazol-6-yl)spiro[cyclopropane-1,3′-indolin]-2′-one 2,2,2-trifluoroacetate] | < 0.1 |
| CN1C(=O)[C@@]2(C[C@H]2c2ccc3c(/C=C/c4ccc(CN5CCCC5)cc4)n[nH]c3c2)c2ccccc21 [Example A115, (1R,2S)-(E)-1′-methyl-2-(3-(4-(pyrrolidin-1-ylmethyl)styryl)-1H-indazol-6-yl)spiro[cyclopropane-1,3′-indolin]-2′-one 2,2,2-trifluoroacetate] | < 0.1 |
| COc1ccc2c(c1)[C@]1(C[C@H]1c1ccc3c(-c4ccc(C5(F)CCN(C)CC5)cc4)n[nH]c3c1)C(=O)N2 [Example A124, (1R,2S)-2-(3-(4-(4-fluoro-1-methylpiperidin-4-yl)phenyl)-1H-indazol-6-yl)-5′-methoxyspiro[cyclopropane-1,3′-indolin]-2′-one 2,2,2-trifluoroacetate] | < 0.1 |
